Data on 26 molecules can be found in PubChem BioAssay (NCI).

“And” between values parts separate entries of the source, which are not always exact repeats. Equal values may be shown once.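 Where inhibition never reached the appropriate level, the endpoint shown equals the highest concentration tested. Otherwise, values were interpolated linearly from a five-concentration, 48-hour dose response in 96-well plates. GI50: concentration for 50% inhibition of growth. TGI denotes the concentration required for complete inhibition of growth.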 Where only a bound is given, the exact number is not on record here.

Assay in all cases: DTP human tumour cell line panel, 48 h
Assay [1] concerns SK-MEL-2 melanoma.
Assay [2] relates to MOLT-4 leukemia.
Assay [3] relates to NCI/ADR-RES ovarian.
Assay [4] has as its system CCRF-CEM leukemia.
Assay [5] relates to A549 NSCLC.
Assay [6] has as its system HCT-116 colon.
Assay [7] deals with PC-3 prostate.
Assay [8] deals with CAKI-1 renal.
Assay [9] deals with UO-31 renal.

In the case of `COc1cc2cc3c(c(O)c2c(O)c1-c1c(OC)cc2cc4c(c(O)c2c1O)C(=O)O[C@H](C)C4)C(=O)O[C@H](C)C3`, the GI50 – broadly, the concentration at which growth is held to half of that of the control – was 50.7 µM in assay [1]; more than 100 µM in assay [2]; 37.2 µM in assay [3]; 25.3 µM in assay [4]; 39.3 µM in [5]; 20.3 µM in [6]. In addition, the GI50 in assay [7] was 35.8 µM; in assay [8], 23.9 µM; in assay [9] it was more than 100 µM. Besides, the TGI (commonly the concentration giving total growth inhibition) in assay [1] is more than 100 µM; in assay [2], more than 100 µM; in assay [3], more than 100 µM; in [4], 67.7 µM; in assay [5] it was more than 100 µM; in [6], 43 µM. Also, the concentration for total growth inhibition (TGI) in assay [7] was more than 100 µM; in assay [8] it was 61.2 µM; in assay [9] it was more than 100 µM.
In the case of `O=C(/C(=C/c1ccc(O)cc1)c1ccccc1)c1ccccc1`, the TGI worked out at 24.1 µM in assay [1]; 37.3 µM in assay [2]; 80.2 µM in [4]; 41.7 µM in [5]; 31.5 µM in assay [6]; 38.2 µM in assay [8]. Further, the concentration for total growth inhibition (TGI) in [9] is 29.4 µM.
With `[Cl-].[Gd+3].[O-]/N=C(\c1ccccc1)c1ccccn1.[O-]/N=C(\c1ccccc1)c1ccccn1.[O-]/N=C(\c1ccccc1)c1ccccn1`, the GI50 in assay [1] is 27.1 µM; in assay [2], 40.5 µM; in [4], 34.3 µM; in [5], 55.2 µM; in assay [6] it was 49.3 µM; in assay [8] it was 42.3 µM. The GI50 in assay [9] was 35.3 µM. Also, the TGI is 78.5 µM in [1]; more than 100 µM in assay [2]; more than 100 µM in assay [4]; more than 100 µM in assay [5]; more than 100 µM in assay [6]; more than 100 µM in assay [8]. This molecule came in with a total growth inhibition concentration (TGI) in assay [9] of more than 100 µM.
`COC(=O)c1sc(=NC(=S)N2CCCCC2)sc1C(=O)OC`: the TGI in [1], in assay [2], in assay [4], in assay [6], in assay [8] and in assay [9] was more than 100 µM in each case.
Take `COC(=O)C1CCC(=O)N1/C(C)=N/NC(=O)Nc1ccc(Cl)c(Cl)c1` (configuration not stated): the total growth inhibition concentration (TGI) in assay [1], in assay [2], in assay [4], in [5], in [6] and in [8] was more than 100 µM throughout. Besides, the TGI in assay [9] was more than 100 µM.
For `c1ccc2c3c([nH]c2c1)C1C2CCCCN2C(c2ccncc2)N1CC3` (configuration not stated), the TGI in assay [1], in [2], in assay [4], in [5], in [6] and in assay [8] was more than 100 µM throughout. In assay [9], this molecule returned a concentration for total growth inhibition (TGI) of 34.8 µM.
Regarding `COC(=O)CC1CC2(C(=O)OC)c3[nH]c4ccccc4c3CCN2C1=O` (configuration not stated), the TGI in [1], in assay [2], in assay [4], in assay [5], in [6] and in assay [8] was more than 100 µM each time. This molecule also gave a TGI in assay [9] of more than 100 µM.
As for `O=c1cccccc1[O-].O=c1cccccc1[O-].O=c1cccccc1[O-].[Sm+3]`, the TGI in assay [1] is more than 100 µM; in [2] it was more than 100 µM; in assay [4], more than 100 µM; in [5], more than 100 µM; in assay [6], 94.5 µM; in assay [8] it was more than 100 µM. In addition, the concentration for total growth inhibition (TGI) in assay [9] was more than 100 µM.
On to `O=C(c1ccccc1)C(Br)C(Br)c1ccccc1` (configuration not stated), for which the GI50 in assay [1] is 10.7 µM; in [3], 2.92 µM; in assay [5], 18.3 µM; in [6] it was 1.73 µM; in assay [7] it was 18.3 µM; in [8], 1.6 µM. The GI50 in [9] was 1.85 µM. In addition, the concentration for total growth inhibition (TGI) in assay [1] was determined as 24.6 µM; in assay [3] it was 9.55 µM; in [5] it was 39.2 µM; in assay [6], 3.32 µM; in [7], 33.4 µM; in assay [8], 3.34 µM. The same molecule came in with a concentration for total growth inhibition (TGI) in assay [9] of 3.87 µM.
Turning to `CCCCC[C@@H](C/C=C/CCC(=O)NC/C(=C/Cl)[C@H]1C(=O)C(C)(C)C(=O)[C@@H](C)[C@@]1(C)O)OC`, the GI50 in [1] is 17.3 µM; in assay [2], 21 µM; in assay [3], 20.8 µM; in assay [4] it was 3.27 µM; in assay [5], 16.2 µM; in assay [6], 14 µM. Besides, the GI50 in assay [7] was 19.6 µM; in [8], 18.2 µM; in assay [9], 15.4 µM. Moreover, the TGI was found to be 31.9 µM in [1]; 59.3 µM in assay [2]; 41.3 µM in assay [3]; 15.7 µM in assay [4]; 33.3 µM in [5]; 27.4 µM in assay [6]. Also, the results for the TGI in assay [7], in assay [8] and in [9] were 43.5 µM, 34.1 µM and 28.8 µM, respectively.
For the molecule `CN(C)c1ccc(N=C2C=CC(=C(C#N)C#N)c3ccccc32)cc1`, the TGI in assay [1] turned out to be 6.7 µM; in [2], 8.04 µM; in assay [3], 2.34 µM; in assay [4], 3.46 µM; in assay [5] it was 13.7 µM; in assay [6], 5.26 µM. Moreover, the figures for the TGI in assay [7], in assay [8] and in [9] were 10.8 µM, 12.7 µM and 14.2 µM, respectively.
In the case of `CC(=O)[O-].[Mn+3].[O-]c1ccc(Cl)cc1C=NCCN=Cc1cc(Cl)ccc1[O-]`, the GI50 in assay [1] is more than 100 µM; in assay [2], more than 100 µM; in assay [4], 22.2 µM; in [5], more than 100 µM; in assay [6], more than 100 µM; in [9], more than 100 µM. The total growth inhibition concentration (TGI) in assay [1], in [2], in assay [4], in [5], in [6] and in assay [9] was more than 100 µM throughout.
On to `N#CCCN(CCC#N)c1ccc(C=Nc2ccc(F)cc2)cc1`, for which the TGI in assay [1] is more than 32.3 µM; in assay [2] it was more than 100 µM; in assay [4], more than 100 µM; in [5] it was more than 100 µM; in assay [6], more than 100 µM; in [7], more than 100 µM. For the same molecule, the TGI in [8] and in assay [9] was more than 100 µM in each case.
Regarding `c1cncc(C2ONC3=NCCN32)c1` (configuration not stated), the GI50 was 68.8 µM in [1]; 28.4 µM in [2]; 22.1 µM in assay [3]; 21 µM in assay [4]; 40.5 µM in assay [5]; 34.6 µM in assay [6]. Further, the GI50 is 30.8 µM in [7], 8.92 µM in assay [8] and 2.27 µM in [9]. The TGI is more than 100 µM in assay [1]; 56.6 µM in [2]; 80.4 µM in assay [3]; 56.6 µM in assay [4]; more than 100 µM in assay [5]; more than 100 µM in assay [6]. Further, the concentration for total growth inhibition (TGI) in assay [7] was more than 100 µM; in [8], 42.2 µM; in assay [9] it was more than 100 µM.
For the molecule `O=CC1=CCC2c3[nH]c4ccccc4c3CCN2C1` (configuration not stated), the TGI in assay [1] was 267 µM; in [2], more than 396 µM; in assay [4], more than 396 µM; in assay [5] it was more than 396 µM; in assay [6], 126 µM; in assay [8], more than 396 µM.
In the case of `O=C1CNN=C(Cn2nc(-c3ccccc3)c3ccccc3c2=O)N1`, the TGI in assay [1], in assay [2], in [4], in [5], in [6] and in assay [9] was more than 100 µM each time.
On to `O=C(/C=C(\[O-])c1ccccc1)CCCCCCC(=O)/C=C(\[O-])c1ccccc1.O=C(/C=C(\[O-])c1ccccc1)CCCCCCC(=O)/C=C(\[O-])c1ccccc1.O=C(/C=C(\[O-])c1ccccc1)CCCCCCC(=O)/C=C(\[O-])c1ccccc1.[Nd+3].[Nd+3]`, for which the GI50 in assay [1] is more than 50 µM; in assay [2] it was 27.5 µM; in assay [5] it was more than 50 µM; in assay [6], more than 50 µM; in [8], more than 50 µM; in assay [9], more than 50 µM. In addition, the concentration for total growth inhibition (TGI) in [1], in [2], in assay [5], in [6], in [8] and in assay [9] was more than 50 µM each time.
For the molecule `CC1=CCN(c2ccccn2)OC1c1ccccc1` (configuration not stated), the TGI in assay [1], in assay [2], in assay [4], in assay [5], in [6] and in assay [8] was more than 100 µM each time. This molecule also came in with a concentration for total growth inhibition (TGI) in assay [9] of more than 100 µM.
Regarding `CC(=O)OCC1OC(n2c(=S)n(-c3ccccc3)c(=O)c3cc(Br)cc(Br)c32)C(OC(C)=O)C(OC(C)=O)C1OC(C)=O` (configuration not stated), the TGI in assay [1], in [2], in [4], in assay [5], in assay [6] and in assay [8] was more than 100 µM each time. Also, the TGI in assay [9] was more than 100 µM. Also, the GI50 was 36.8 µM in assay [2]; > 100 µM and 42.9 µM in [9].
Consider `CC1CC(C)C(C(O)CC2CC(=O)N(c3ccccc3)C(=O)C2)C(O)C1` (configuration not stated), for which the TGI in assay [2], in assay [4], in [5], in assay [6], in assay [8] and in assay [9] was more than 100 µM each time.
Turning to `O=C(C(=O)c1cc(Br)ccc1O)c1cc(Br)ccc1O`, the GI50 in [1] is 3.88 µM; in assay [2], 3.28 µM; in [3], 3.36 µM; in assay [4] it was 5.5 µM; in assay [5] it was 4.16 µM; in assay [6] it was 3.38 µM. Moreover, the GI50 in assay [7] is 3.13 µM; in assay [8], 2.16 µM; in assay [9], 1.97 µM. Further, the total growth inhibition concentration (TGI) in [1] was 13.3 µM; in [2], 19.9 µM; in assay [3], more than 100 µM; in assay [4], more than 100 µM; in [5], 22.3 µM; in assay [6], 12.7 µM. Also, the total growth inhibition concentration (TGI) in [7] is 15.7 µM; in assay [8], 6.05 µM; in [9], 6.51 µM.
On to `C/C(CC(=O)Nc1cccc([N+](=O)[O-])c1)=N\NC(=O)C[n+]1ccccc1`, for which the TGI in assay [1], in [2], in assay [4], in assay [5], in assay [6] and in assay [9] was more than 100 µM in each case.
`COCC1N=C(c2cc(OC)c(OC)c(OC)c2-c2cc3c(cc2[C@H](C)O)OCO3)O[C@H]1c1ccccc1` (some centres not stated): the TGI was more than 100 µM in assay [1]; more than 100 µM in [2]; more than 10 µM in assay [4]; more than 100 µM in assay [5]; more than 100 µM in assay [6]; more than 100 µM in [9].
Regarding `Nc1ccc(C(=O)/C=C/c2ccccc2O)cc1`, the concentration for total growth inhibition (TGI) in [1], in [2], in assay [4], in assay [5], in assay [6] and in assay [8] was more than 100 µM each time. Besides, in assay [9], the TGI was more than 100 µM.
On to `COc1cc(CCc2ccc(OC(C)=O)cc2)cc(OC)c1OC`, for which the TGI in assay [2], in [4], in assay [5], in assay [6], in assay [8] and in [9] was more than 100 µM throughout.
Consider `CN(C)c1ccc(O[Si](Oc2ccc(N(C)C)cc2)(Oc2ccc(N(C)C)cc2)Oc2ccc(N(C)C)cc2)cc1`, for which the TGI in [2], in assay [4], in assay [5], in assay [6], in assay [8] and in assay [9] was more than 100 µM throughout.
